Square brackets hold non-standard residues; d marks the D form. Peptide text beside a SMILES is read from it. pT = C[C@@H](OP(=O)(O)O)[C@H](N)C(=O)O
How the values were obtained:
Bub1^289–359–Bub3^R239A = biological target: T1, Bub1^289–359–Bub3^R239A (Saccharomyces cerevisiae, UniProt P26449+P41695, R239A); test: ITC binding to Bub1^289–359–Bub3^R239A; settings: Bub3 R239A compared with wild type (13- to 25-fold for R217A or R239A)
T1 construct: S. cerevisiae Bub1^289–359 and for full length Bub3; ITC experiments with the MELT2^P peptide and Bub1^289–359–Bub3^R239A; GST (N, cleaved yes); made in house; host or cells: E. coli BL21 DE3 plysS
T1 sequence (P26449 1-341 R239A): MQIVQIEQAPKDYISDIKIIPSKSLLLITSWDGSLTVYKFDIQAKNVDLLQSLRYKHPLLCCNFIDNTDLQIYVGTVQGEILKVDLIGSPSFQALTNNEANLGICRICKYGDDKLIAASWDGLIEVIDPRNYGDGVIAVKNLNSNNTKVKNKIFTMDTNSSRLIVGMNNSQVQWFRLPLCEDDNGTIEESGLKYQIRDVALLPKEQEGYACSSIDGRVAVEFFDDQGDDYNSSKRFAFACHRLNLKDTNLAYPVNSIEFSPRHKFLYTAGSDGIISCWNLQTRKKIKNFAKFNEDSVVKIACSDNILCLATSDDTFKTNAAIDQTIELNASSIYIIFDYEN
T1 sequence (P41695 289-359): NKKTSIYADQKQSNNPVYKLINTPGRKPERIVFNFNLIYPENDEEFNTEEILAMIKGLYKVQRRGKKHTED
Description: Because the presence of a phosphate on Thr172^Spc105/Knl1 is essential for high-affinity binding of ScBub1^289–359–Bub3 to MELT^P peptides (Figure 1), we concentrated our mutational analysis on two residues that are directly implicated in the recognition of the peptide’s phospho-threonine, Arg217^Bub3 and Arg239^Bub3. Positively charged residues are invariant at these positions of the Bub3 alignment (Figure 2C). We generated single or double alanine mutants of Arg217^Bub3 and Arg239^Bub3 in the context of ScBub1^289–359–Bub3 and tested their binding affinity for the MELT2^P peptide by ITC.
cDNA sequences coding for S. cerevisiae Bub1^289–359 and for full length Bub3 were subcloned in the first and second cassettes of pGEX-6P-2rbs vector ([Ciferri et al., 2005]). In this construct, the cDNA encoding Bub1^289–359 was sub-cloned in frame with the gene encoding GST and a cleavage site for PreScission protease, and was translated from the first ribosome-binding site (rbs). Untagged Bub3 was subcloned downstream of the second rbs in the same vector. Expression was carried out in BL21 DE3 plysS cells in LB medium by auto-induction with 0.3% lactose at 18°C for approximately 16 hr. […]
Binding isotherm was measured at 25°C by isothermal titration calorimetry on a MicroCal ITC200 device (GE Healthcare, Piscataway, NJ). […]

Bub1^289–359–R314A–Bub3 = biological target: T2, Bub1^289–359–R314A–Bub3 (Saccharomyces cerevisiae, UniProt P26449+P41695, R314A); assay type: binding; settings: ITC; Bub3-Bub1^R314A mutant compared to wild type Bub3–Bub1; MELT4^P: data not shown
T2 construct: S. cerevisiae Bub1^289–359 and for full length Bub3; ITC experiment with the MELT2^P peptide and the Bub1^289–359–R314A–Bub3 complex; GST (N, cleaved yes); made in house; host or cells: E. coli BL21 DE3 plysS
T2 sequence (P26449 whole entry): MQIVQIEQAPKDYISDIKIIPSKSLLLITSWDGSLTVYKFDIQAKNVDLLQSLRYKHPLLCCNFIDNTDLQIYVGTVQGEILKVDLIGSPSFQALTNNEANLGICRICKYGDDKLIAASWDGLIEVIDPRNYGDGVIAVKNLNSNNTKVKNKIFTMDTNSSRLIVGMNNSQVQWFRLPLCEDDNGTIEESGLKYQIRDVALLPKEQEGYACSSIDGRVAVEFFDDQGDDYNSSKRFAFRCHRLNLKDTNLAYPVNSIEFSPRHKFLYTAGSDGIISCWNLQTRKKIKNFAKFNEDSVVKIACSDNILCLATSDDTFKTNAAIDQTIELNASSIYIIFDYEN
T2 sequence (P41695 289-359 R314A): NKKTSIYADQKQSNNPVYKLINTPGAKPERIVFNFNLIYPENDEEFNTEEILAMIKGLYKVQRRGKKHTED
Description: Such function of Bub1 is probably exerted primarily through its structuring effects on the 4-stranded β-sheet ‘roof’ that dominates the peptide-binding region of Bub3 and which restrains the position of the positively charged residues in the ‘north’ area of the MELT^P-binding site (Figure 4E). Additionally, we observe that Arg314^Bub1, in the β1-β2 loop, contributes to the interaction with the phosphate group of P-Thr172^Spc105/Knl1 (the interaction, however, is only observed in one of the two complexes in the asymmetric unit, and in proximity of a crystal contact) and is therefore directly engaged in the interaction with the MELT2^P peptide. In ITC measurements, we observed a ∼fourfold reduction in the binding affinity of the Bub3-Bub1^R314A mutant for the MELT2^P peptide, in agreement with a role of Arg314^Bub1 is in the interaction of the Bub1-Bub3 complex with MELT2^P (Figure 4F). Similarly, Bub3–Bub1^R314A bound the MELT4^P with ∼threefold decreased affinity compared to wild type Bub3–Bub1 (data not shown).
Binding isotherm was measured at 25°C by isothermal titration calorimetry on a MicroCal ITC200 device (GE Healthcare, Piscataway, NJ). All samples were extensively dialysed into fresh GF buffer (20 mM Tris pH7.5, 150 mM NaCl, 1 mM DTE). […]

## CC[C@H](C)[C@H](NC(=O)[C@H](CO)NC(=O)[C@H](CCCNC(=N)N)NC(=O)[C@@H]1CCCN1C(=O)[C@H](Cc1ccccc1)NC(=O)[C@@H](NC(=O)[C@H](CCC(=O)O)NC(=O)[C@@H](NC(=O)[C@H](CCSC)NC(=O)[C@H](CCC(=O)O)NC(=O)[C@H](CCSC)NC(=O)[C@H](CO)NC(=O)[C@@H](NC(=O)[C@@H]1CCCN1C(=O)[C@H](CC(=O)O)NC(C)=O)[C@@H](C)O)[C@@H](C)OP(=O)(O)O)C(C)C)C(=O)N[C@@H](CCCNC(=N)N)C(=O)N[C@@H](CCC(N)=O)C(=O)N[C@@H](CCCCN)C(=O)N[C@@H](CC(N)=O)C(N)=O [MELT2^P] (Ac-DPTSMEM[pT]EVFPRSIRQKN-NH2; N-terminus and C-terminus assumed)
Bub1^289–359–Bub3^R239A
  fold reduction in binding affinity: 25 fold
Bub1^289–359–R314A–Bub3
  fold reduction in binding affinity: fourfold

Reference: PMC3779320, “Bub3 reads phosphorylated MELT repeats to promote spindle assembly checkpoint signaling” (eLife, 2013)
